Assay results reported in patent US6423855B1, “Cytoprotective compounds” (Virginia Commonwealth University, priority 1996, dated 2002).
≈ marks a conversion by molar mass, not a printed value.

Key:
[1] = tested on: pancreatin; assay: degradation in vitro by pancreatin; type: in vitro ADME; conditions: commercial pancreatic enzyme preparation (Sigma)
Description: The compounds of the present invention are not generally hydrolyzed by pancreatic enzymes and are different from glycerol-based compounds in terms of their chemistry and metabolism. […] The resistance of PX-13 and PX-18 to metabolism by pancreatic enzymes supports their stability after oral administration.

[2] = tested on: mice; assay: acute toxicity (LD50 study), single IP dose; type: in vivo
Method: An LD50 study was conducted to determine a lethal dose for PX-13 suspended in HEPES buffer at a pH of 7.4. A single IP dose of 50, 100, 200 or 400 mg/kg was administered to mice (n=6 per group). […] No necropsy was performed.

[3] = tested on: rat dorsal root ganglion cells; assay: cultured rat dorsal root ganglion cells exposed to snake venom PLA2; type: cell-based; conditions: 1-3 umols/min/mg for 60 min
[4] = tested on: PLA2 activity in extracts of rat bowel; assay: PLA2 activity in extracts of rat bowel; type: biochemical
[5] = molecular target: T1, purified human disc type II, PLA2 (Homo sapiens, UniProt P14555); assay: inhibition of purified human disc type II PLA2; type: biochemical
T1 construct: the purified human disc type II, PLA2; from tissue; host or cells: human vertebral (herniated) disc
T1 sequence (P14555 21-144): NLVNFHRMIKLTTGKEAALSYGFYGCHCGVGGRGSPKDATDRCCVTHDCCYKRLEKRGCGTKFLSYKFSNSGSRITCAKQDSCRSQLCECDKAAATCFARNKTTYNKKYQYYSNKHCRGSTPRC
Method: Both PX-13 and PX-18 inhibit the purified human disc type II, PLA2. PLA2 activity was measured as described in Franson et al., Prostaglandins, Leukotrienes and Essential Fatty Acids, 43:63-70, 1991, which is herein incorporated by reference in its entirety.

[6] = tested on: ultraviolet-induced erythema; assay: protection against ultraviolet-induced erythema; type: in vivo, hairless albino mice; conditions: 1 = Best, 4 = Worst
Method: The human skin tests were conducted on three volunteer female subjects, ages 29-32; a cream base with no added active was included as a control, while the untreated skin served as an additional basis for evaluation. Sunburn tests were performed on a total of 30 hairless albino mice.
5.Protection against ultraviolet-induced ervthema. The protection against ultraviolet-induced erythema (i.e., the burn and irritation produced after exposure to ultraviolet radiation), was measured by first irradiating 12 mice with destructive 3130 angstrom (Å) rays, applying the creams, and then evaluating the skin cells for erythema.

[7] = tested on: clone W2 (P.falciparum); assay: 3H-hypoxanthine incorporation, P.falciparum clone W2; type: cell-based; conditions: Plasmodium falciparum, W2; chloroquine resistant, mefloquine sensitive clone, RBC culture; read-out: IC50 growth
[8] = tested on: clone D6 (P. falciparum); assay: 3H-hypoxanthine incorporation, P.falciparum clone D6; type: cell-based; conditions: Plasmodium falciparum, D6, read-out: IC50 growth
[9] = therapeutic index LD50/ED50
[10] = tested on: epidermis cell turnover; assay: cell turnover rate (dansyl chloride); type: in vivo, human
Method: Two PX compounds PX-11 and PX-13 were evaluated in a cream formulation prepared under GMP. The chemicals were formulated into a bland cream and evaluated in the following human or mouse skin tests: (1) occluded patch test for irritation; (2) cell turnover rate; (3) transepidermal water loss; (4) skin moisturization; and (5) reduction in erythema after induced sunburn. The human skin tests were conducted on three volunteer female subjects, ages 29-32; a cream base with no added active was included as a control, while the untreated skin served as an additional basis for evaluation. Sunburn tests were performed on a total of 30 hairless albino mice. 2. Cell turnover rate: This parameter was measured by adsorption of dansyl chloride, in which 3% dansyl chloride was incorporated into petrolatum. This salve was applied over a 2.5 cm diameter circular area in the upper arm and a patch applied. 24 hours later the patch was removed. The intensity of dansyl chloride fluorescence was indicative of the cell turnover rate in the epidermis.

[11] = tested on: thrombin-stimulated platelets; assay: serotonin release by thrombin-stimulated platelets; type: cell-based
Description: (§1) Applicants have also observed that PX-13 inhibited serotonin release by thrombin-stimulated platelets. This observation supports the contention that the PX compounds of the present invention may block release of inflammatory mediators in the coagulation cascade. This observation also supports the use of PX compounds to inhibit thrombin-induced platelet aggregation and to act as anti-clotting agents.

[12] = tested on: small bowel graft; assay: small bowel transplantation ischemia-reperfusion injury; type: in vivo, rat
Method: These drugs were also tested for their ability to enhance the preservation of tissues stored for subsequent transplantation. The small bowel was removed from rats, washed free of luminal contents and the tissue stored in University of Wisconsin (UW) preservative media ±40 uM PX-13 or mepacrine for 48 hrs. The graft was then transplanted into rats with or without intravenous (IV) infusion of 20 mg/kg PX-13 or mepacrine at the time of transplantation.

[13] = tested on: rat dorsal root ganglion cells; assay: cultured rat dorsal root ganglion cells exposed to human disc PLA2; type: cell-based
Method: Primary cultures of rat dorsal root ganglion cells were used. Cells were washed 3-times with media to remove serum. Then, PX-13 (20 uM) in HEPES buffer or a buffer control was applied to the cells. After 10 min of incubation, purified human disc PLA2 (activity 1 umol/min) was added and the cells were incubated for an additional 60-90 min. Cells were then observed, fixed, and photographed 1.5 hrs after addition of PLA2.

[14] = tested on: platelets; assay: platelet aggregation; type: cell-based; conditions: 25-μM dose
Description: as §1

[15] = tested on: outer skin layers; assay: skin moisturization (20 megahertz ultrasound); type: in vivo, human; conditions: for Ultrasound Density Score: 30 minutes after application
Method: Two PX compounds PX-11 and PX-13 were evaluated in a cream formulation prepared under GMP. The chemicals were formulated into a bland cream and evaluated in the following human or mouse skin tests: (1) occluded patch test for irritation; (2) cell turnover rate; (3) transepidermal water loss; (4) skin moisturization; and (5) reduction in erythema after induced sunburn. The human skin tests were conducted on three volunteer female subjects, ages 29-32; a cream base with no added active was included as a control, while the untreated skin served as an additional basis for evaluation. Sunburn tests were performed on a total of 30 hairless albino mice. 4. Skin moisturization. Skin moisturization was measured using 20 megahertz ultrasound (the presence of moisture produces a density decrease in the outer skin layers), before and 30 minutes after product application to the forearm.

## CCCCCCCC/C=C\CCCCCCCC(=O)OCC(COC(=O)CCCCCCC/C=C\CCCCCCCC)(COC(=O)CCCCCCC/C=C\CCCCCCCC)NCCS(=O)(=O)O [PX-13, 2-[Tris(oleoyloxymethyl)methylamino]-1-ethanesulfonic acid]
[1]
  degradation in vitro by pancreatin: resistant to degradation
[2]; 400 mg/kg group, n=6
  deaths at 144 hrs: one animal in the 400 mg/kg group died
[2]; mouse, in vivo
  tolerability: extremely well tolerated
[3]
  protection against toxicity of purified snake venom PLA2: protected
[4]
  effectiveness as PLA2 inhibitor relative to mepacrine: more than 2 log units
  inhibition of PLA2 activity: inhibited
[5]
  IC50: 2.5 µM
[6]; Mean
  Post-Radiation Erythema Ranking Mean: 4.7
[6]; Subject 3
  Post-Radiation Erythema Ranking: 4
[7]
  IC50: 13 µg/mL (≈ 12.7 µM)
[8]
  IC50: 17 µg/mL (≈ 16.6 µM)
[9]
  therapeutic index (LD50/ED50): a large positive number
[10]; cream-treated skin, upper arm
  Days to Cell Renewal Treated: 21.6 days
[10]; treated vs untreated skin
  % Change in Cell Turnover Time: −29%
[11]
  serotonin release: inhibited
[12]; 40 uM in UW media 48 hrs, with or without 20 mg/kg IV at transplantation
  gross and microscopic injury to tissue: dramatically reduced
[12]; rat, in vivo
  bowel color after transplantation: maintained normal bowel color
[12]; small bowel transplantation
  protection against ischemia and reperfusion injury: protect
[13]; 20 uM alone
  cell morphology, compound alone: indistinguishable from control cultures
[13]; 20 uM, PLA2 activity 1 umol/min, 60-90 min
  cell morphology, compound + human disc PLA2: indistinguishable from control cultures
[14]
  platelet aggregation: inhibited
[15]; Subject 1, 7 = Best, 1 = Baseline
  Ultrasound Density Score: 1
[15]; Subject 2
  Ultrasound Density Score: 2
[15]; Subject 3
  Ultrasound Density Score: −1
[15]; Total of 3 subjects, 7 = Best, 1 = Baseline
  Ultrasound Density Score Total: 2
[15]; in vivo
  moisturization properties: not good moisturizers
